Broadly, the IC50 is the midpoint of a concentration-inhibition curve. One may read the inhibition as how much of the control response was suppressed. The low end stands for a response near the control, the high end for a response far below the control.

The first experiment deals with RNA-directed RNA polymerase (Hepacivirus hominis, UniProt O39930). In words: inhibitory concentration against RNA dependent RNA polymerase Nonstructural protein 5B of hepatitis C virus.
Chain of RNA-directed RNA polymerase (O39930 whole entry): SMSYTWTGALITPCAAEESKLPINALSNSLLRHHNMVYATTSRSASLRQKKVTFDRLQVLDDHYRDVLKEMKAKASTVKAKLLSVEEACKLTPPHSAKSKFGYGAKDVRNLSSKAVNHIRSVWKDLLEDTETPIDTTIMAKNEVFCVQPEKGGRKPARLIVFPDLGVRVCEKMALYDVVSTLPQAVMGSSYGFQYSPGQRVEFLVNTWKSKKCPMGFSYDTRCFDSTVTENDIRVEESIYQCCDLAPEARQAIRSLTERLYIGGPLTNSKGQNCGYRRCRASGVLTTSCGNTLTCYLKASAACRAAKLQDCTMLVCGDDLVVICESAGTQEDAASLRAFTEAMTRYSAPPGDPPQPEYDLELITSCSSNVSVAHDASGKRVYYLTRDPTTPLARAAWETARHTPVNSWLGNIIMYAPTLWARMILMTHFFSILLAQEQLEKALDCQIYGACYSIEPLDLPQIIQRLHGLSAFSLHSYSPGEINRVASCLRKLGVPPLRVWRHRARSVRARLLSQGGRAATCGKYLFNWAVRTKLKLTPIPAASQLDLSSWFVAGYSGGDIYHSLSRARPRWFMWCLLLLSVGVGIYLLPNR
For the compound `O=C(O)c1nc(-c2ccccc2)nc(O)c1O`, it took 30 µM to reach half-maximal inhibition (IC50). The same measure, in the same setting: the figure for `O=C(O)c1nc(-c2cccs2)nc(O)c1O` is 2.6 µM; for `O=C(O)C(=O)/C=C(\O)c1ccccc1` it is 5.7 µM; for `O=C(NS(=O)(=O)C(F)(F)F)c1nc(-c2cccs2)[nH]c(=O)c1O` it is 6.2 µM. Same read-out and setting: the figure for `CS(=O)(=O)c1nc(-c2cccs2)nc(C(=O)O)c1O` is 49 µM. Still for that read-out and setting: the figure for `Cn1c(-c2cccs2)nc(C(=O)O)c(O)c1=O` is 4.2 µM; for `COc1nc(-c2cccs2)nc(C(=O)O)c1O` it is 50 µM.

The target in another experiment is RNA-directed RNA polymerase (Hepacivirus hominis) (UniProt O39930). Description: Percentage inhibition of RNA dependent RNA polymerase Nonstructural protein 5B of hepatitis C virus at 50 uM.
Chain of RNA-directed RNA polymerase (Hepacivirus hominis) (O39930 1-591): as the sequence (O39930 whole entry) above
Consider `O=C(O)c1nc(-c2cccs2)ncc1O`, for which the inhibition is less than 30%.

Compound `O=C(NS(=O)(=O)Cc1ccccc1)c1nc(-c2cccs2)nc(O)c1O` displayed an inhibition of less than 30%.

In turn, `Oc1nc(-c2cccs2)nc(-c2nn[nH]n2)c1O` gave an inhibition of less than 30%.

The compound `O=C(O)c1[nH]c(-c2cccs2)nc2ncnc1-2` gave an inhibition of less than 30%. With `O=C(O)c1nc(-c2ccccn2)nc(O)c1O`, the inhibition was less than 30%. In turn, `COC(=O)c1nc(-c2cccs2)nc(O)c1O` yielded an inhibition of less than 30%. With `CS(=O)(=O)Nc1nc(-c2cccs2)nc(C(=O)O)c1O`, the inhibition was less than 30%. Consider `O=P(O)(O)c1nc(-c2cccs2)nc(O)c1O`, for which the inhibition was less than 30%.
